# Results reported in ChEMBL document CHEMBL1201862, “PubChem BioAssay data set” (2004).
# Calls of active or inactive are those of the source.
# Legend:
# [1] = target: T1, Zinc finger protein mex-5 (Caenorhabditis elegans, UniProt Q9XUB2); assay: potency of MEX-5 RNA-binding blockers – biochemical, C. elegans, fluorescence polarization, dose response (AID 1960)
# T1 sequence (Q9XUB2 whole entry): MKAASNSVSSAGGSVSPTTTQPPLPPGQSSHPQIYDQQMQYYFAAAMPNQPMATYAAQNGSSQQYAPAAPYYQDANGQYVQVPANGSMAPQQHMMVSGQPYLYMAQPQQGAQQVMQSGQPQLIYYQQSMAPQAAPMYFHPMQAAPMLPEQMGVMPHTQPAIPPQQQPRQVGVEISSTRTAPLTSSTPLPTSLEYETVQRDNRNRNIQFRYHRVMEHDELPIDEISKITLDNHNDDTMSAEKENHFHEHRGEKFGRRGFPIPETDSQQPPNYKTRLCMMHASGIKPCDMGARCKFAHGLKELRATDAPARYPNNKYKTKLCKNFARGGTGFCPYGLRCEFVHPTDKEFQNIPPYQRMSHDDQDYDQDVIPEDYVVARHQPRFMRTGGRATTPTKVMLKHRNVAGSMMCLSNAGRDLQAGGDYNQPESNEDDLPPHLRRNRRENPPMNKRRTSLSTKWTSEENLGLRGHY
# [2] = target: T2, RNA-binding protein pos-1 (Caenorhabditis elegans, UniProt G5EF15); assay: disruptors of C. elegans POS-1 RNA interaction – biochemical, fluorescence polarization, dose response (AID 1964);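 also: purified POS-1 fused to maltose binding protein made in E. coli; potency of compounds blocking POS-1 binding to fluorescent RNA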
# T2 sequence (G5EF15 whole entry): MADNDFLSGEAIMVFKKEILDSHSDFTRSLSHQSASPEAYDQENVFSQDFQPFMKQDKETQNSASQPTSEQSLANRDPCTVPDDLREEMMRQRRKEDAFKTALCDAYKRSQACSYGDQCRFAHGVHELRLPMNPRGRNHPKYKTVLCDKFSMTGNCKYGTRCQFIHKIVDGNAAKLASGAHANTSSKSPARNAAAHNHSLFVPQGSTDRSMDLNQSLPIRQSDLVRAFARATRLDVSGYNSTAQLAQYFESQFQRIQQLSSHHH
# [3] = target: T3, Probable nicotinate-nucleotide adenylyltransferase (Staphylococcus aureus (strain N315), UniProt P65502); assay type: functional, Staphylococcus aureus subsp. aureus N315;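 as to IC50 Mean: confirmatory dose-response retesting of NadD inhibitor hits first found in an ultra-high-throughput screen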
# [4] = target: T4, Corticotropin-releasing factor receptor 2/Corticotropin-releasing factor-binding protein (Homo sapiens, UniProt P24387+Q13324); assay: Dose Response confirmation of uHTS hits for small molecule antagonists of the CRF-binding protein and CRF-R2 receptor complex.; assay type: functional; details: read-out: IC50_Mean
# T4 sequence (Q13324 whole entry): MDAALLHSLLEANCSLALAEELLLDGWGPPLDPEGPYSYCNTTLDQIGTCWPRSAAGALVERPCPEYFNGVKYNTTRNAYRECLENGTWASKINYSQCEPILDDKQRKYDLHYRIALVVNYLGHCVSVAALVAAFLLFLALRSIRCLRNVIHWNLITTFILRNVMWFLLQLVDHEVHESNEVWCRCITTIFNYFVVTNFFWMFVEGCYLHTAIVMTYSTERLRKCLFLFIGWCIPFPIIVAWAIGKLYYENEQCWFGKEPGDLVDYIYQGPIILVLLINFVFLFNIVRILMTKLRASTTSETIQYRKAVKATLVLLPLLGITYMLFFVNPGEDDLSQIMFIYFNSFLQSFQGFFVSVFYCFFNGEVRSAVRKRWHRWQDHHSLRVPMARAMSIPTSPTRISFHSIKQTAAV
# T4 sequence (P24387 whole entry): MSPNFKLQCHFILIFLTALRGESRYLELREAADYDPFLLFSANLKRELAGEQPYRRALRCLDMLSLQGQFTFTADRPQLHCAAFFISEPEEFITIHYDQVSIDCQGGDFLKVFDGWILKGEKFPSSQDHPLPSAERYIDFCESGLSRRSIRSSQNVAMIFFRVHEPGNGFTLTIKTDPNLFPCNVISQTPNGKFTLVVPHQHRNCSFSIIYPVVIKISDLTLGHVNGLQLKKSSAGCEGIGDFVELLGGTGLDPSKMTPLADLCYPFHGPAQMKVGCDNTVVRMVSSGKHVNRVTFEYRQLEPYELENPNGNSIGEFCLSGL
# [5] = target: T3, Probable nicotinate-nucleotide adenylyltransferase; assay type: functional, Staphylococcus aureus subsp. aureus N315; details: read-out: IC50_Mean
# [6] = target: T4, Corticotropin-releasing factor receptor 2/Corticotropin-releasing factor-binding protein; assay: activators of CRF receptor 2 with binding protein – uHTS hits, confirmation (AID 602473); assay type: functional; details: read-out: EC50_Mean
# [7] = target: DNA dC->dU-editing enzyme APOBEC-3A (Homo sapiens, UniProt P31941); assay: Dose Response confirmation of small molecule APOBEC3A DNA Deaminase Inhibitors via a fluorescence-based single-stranded DNA deaminase assay. [Related pubchem assays (depositor defined):AID493011, AID493024]; assay type: functional
# [8] = target: DNA dC->dU-editing enzyme APOBEC-3G (Homo sapiens, UniProt Q9HC16); assay type: functional;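 also: Dose-response counterscreen measuring inhibition of APOBEC3G DNA deaminase activity, run while confirming APOBEC3A inhibitors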
# [9] = tested on: P388/ADR; assay: cells; assay type: functional; details: Mus musculus
# [10] = tested on: SN12K1; assay: cells; assay type: functional; details: Homo sapiens
# [11] = tested on: P388; assay: cells; assay type: functional; details: Mus musculus
# [12] = blockers of HIV-1 envelope-mediated cell-cell fusion – cherry-pick, dose response (AID 652057); assay type: functional, cell-based
# [13] = HIV-1 AD8 envelope cell-cell fusion blockers – cherry-pick, dose response (AID 652062); assay type: functional, cell-based;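 also: luciferase signal from cell-cell fusion driven by HIV-1 clade B AD8 Env; potency is for inhibitors of fusion seen as a drop in luminescence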
# [14] = viability of uninfected HEp-2 cells – cell-based, HTS, cytotoxicity control for RSV inhibitor project, dose response (AID 2410); assay type: functional; details: human respiratory syncytial virus
# T3 sequence (P65502 whole entry): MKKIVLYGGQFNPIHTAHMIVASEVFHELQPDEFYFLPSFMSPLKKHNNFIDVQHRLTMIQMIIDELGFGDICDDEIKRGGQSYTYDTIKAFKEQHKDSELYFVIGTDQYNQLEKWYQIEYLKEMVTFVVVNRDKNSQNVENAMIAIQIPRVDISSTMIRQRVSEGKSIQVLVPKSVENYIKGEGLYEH
# DNA dC->dU-editing enzyme APOBEC-3G, sequence (Q9HC16 whole entry): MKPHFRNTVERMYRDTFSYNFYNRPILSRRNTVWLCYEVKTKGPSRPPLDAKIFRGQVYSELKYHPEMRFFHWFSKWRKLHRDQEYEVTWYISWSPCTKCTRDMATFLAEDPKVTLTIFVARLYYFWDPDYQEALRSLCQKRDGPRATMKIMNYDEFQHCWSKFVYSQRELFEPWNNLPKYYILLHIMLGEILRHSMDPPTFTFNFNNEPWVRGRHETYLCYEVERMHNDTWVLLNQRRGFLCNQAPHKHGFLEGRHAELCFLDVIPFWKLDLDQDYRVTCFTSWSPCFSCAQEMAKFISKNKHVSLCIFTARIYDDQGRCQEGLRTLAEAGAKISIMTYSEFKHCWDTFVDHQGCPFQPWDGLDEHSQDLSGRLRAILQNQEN
# DNA dC->dU-editing enzyme APOBEC-3A, sequence (P31941 whole entry): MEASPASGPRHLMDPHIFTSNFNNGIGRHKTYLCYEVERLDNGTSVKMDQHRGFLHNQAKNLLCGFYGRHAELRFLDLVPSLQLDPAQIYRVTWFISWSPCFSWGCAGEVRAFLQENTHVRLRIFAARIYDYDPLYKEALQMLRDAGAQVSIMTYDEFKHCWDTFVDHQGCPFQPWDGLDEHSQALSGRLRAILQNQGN
Compound,GI50 [9],GI50 [10],GI50 [11],further results
CCOC(=O)c1ccc2c(c1)C1C=CCC1C(C(=O)OCC)N2 (stereo unspecified),–,–,–,EC50 [1]: > 300 µM (not active); EC50 [2]: > 300 µM (not active)
Cc1ccccc1COc1ccc(C(=O)C2=C(O)C(=O)N(CCCn3ccnc3)C2c2ccco2)cc1 (stereo unspecified),–,–,–,IC50 [3]: 10.5 µM (active); IC50 [4]: > 47.1 µM (inactive); IC50 [5]: 80 µM (inactive); EC50 [6]: > 53 µM (inactive)
CCCc1n(CC(O)COCc2ccccc2)c2ccccc2[n+]1C (stereo unspecified),–,–,–,IC50 [7]: 3.16 µM (active); IC50 [8]: 4.55 µM (active)
CC1=NN(C(=O)c2ccc(C)cc2)C(=O)C1/N=N/c1ccccc1C(=O)O (stereo unspecified),> 100 µM (inactive),> 100 µM (inactive),17.5 µM (inactive),–
CSc1cc(=O)n2c3ccccc3c3ccnc1c32,> 100 µM (inactive),81.5 µM (inactive),> 100 µM (inactive),–
CC(C(=O)O)c1cnn(-c2ccccc2)c1-n1cccc1 (stereo unspecified),> 100 µM (inactive),> 100 µM (inactive),> 100 µM (inactive),–
COc1cc(NCc2ccc3nc(N)nc(N)c3c2C)cc(OC)c1OC,0.025 µM (active),0.025 µM (active),0.025 µM (active),–
C[C@H](CO)N1C[C@H](C)[C@H](CN(C)Cc2cccc(F)c2)OCc2ccccc2-c2ccccc2C1=O,–,–,–,AC50 [12]: < 0.26 µM (active); AC50 [13]: < 0.26 µM (active)
C[C@@H]1C[C@]2(C[C@@H](C)[C@H]3C(C[C@@]4(C)CCC[C@@H]5C6=C[C@H](CCC34C)OC6=CC(=O)OC5(C)C)O2)OC1=O (stereo partly specified),> 51.5 µM (inactive),> 51.5 µM (inactive),> 51.5 µM (inactive),–
C#CCn1/c(=N/C(=O)c2cc(-c3cccs3)nc3ccccc23)sc2cc(S(N)(=O)=O)ccc21,–,–,–,IC50 [3]: 12.8 µM (active); CC50 [14]: > 50 µM (active); IC50 [5]: 24.6 µM (active)
CCOCCCn1/c(=N/C(=O)c2ccc(OC)c(OC)c2)c(C#N)cc2c(=O)n3cccc(C)c3nc21,–,–,–,EC50 [1]: 35.4 µM (active); EC50 [2]: 26.8 µM (active)
O=C1C(CO)=C[C@H](O)[C@H]2O[C@@H]12,29.9 µM (inactive),116 µM (inactive),38.9 µM (inactive),–
Cc1cn(C2CC(O)C(CO)O2)c(=O)[nH]c1=O (stereo unspecified),91.8 µM (inactive),857 µM (inactive),57.4 µM (inactive),–
